The nature of series [1]: Antimicrobial activity (general statement). As to conditions: qualitative statement, no comparator named.
The next series can be described thus: Cytotoxicity test (XTT). It is filed as cell-based. The settings on record: African green monkey, vero cells, 3 days incubation, absorbance 450 nm, read-out: CC50 (concentration when cell proliferation was inhibited by 50%). The protocol:
Each test substance was dissolved in dimethyl sulfoxide and was prepared to each concentration with E-MEM containing 10% FBS, and then 0.1 mL of this solution was dispensed into each well of a 96-well microplate. A vero cell suspension containing 3×10^4 cells/mL was prepared with E-MEM containing 10% FBS, and 0.1 mL of the suspension was inoculated to each well. After incubation in 5% CO2 at 37° C. for 3 days, 50 μL of E-MEM containing 1 mg/mL of 2,3-bis-(2-methoxy-4-nitro-5-sulfophenyl)-5-[(phenylamino)carbonyl]-2H-tetrazolium, inner salt, monosodium salt (XTT) and 25 μM of phenazine methosulfate (PMS) was added to each well. After about 2 hours, the absorbance at 450 nm was measured with a microplate reader.
The absorbance ratio of each well supplied with the test substance and the control not containing the test substance was calculated, and the concentration of each compound when cell proliferation was inhibited by 50% (CC50; μg/mL) was calculated.
In general terms: Formazan colour is commonly taken as a measure of viable cells.

Series [2] is described as follows: Metabolic stability (general statement). The class given is in vitro ADME. As to conditions: qualitative statement, no comparator named. The source says: The compound of the general formula [1] of the present invention has excellent metabolic stability. The metabolic stability can be evaluated by various tests, for example, by various types of stability tests selected from a human liver microsome metabolic stability test, a human S9 stability test, and the like.

A short description of series [3]: Safety (general statement). The settings on record: qualitative statement, no comparator named. The source says:
The compound of the general formula [1] of the present invention has excellent safety. The safety can be evaluated by various tests, for example, by various types of safety tests selected from a cytotoxicity test, a selectivity test against DNA gyrase of human and various bacteria, a selectivity test against topoisomerase IV of human and various bacteria, an hERG test, a repeat-dose toxicity test, a cytochrome P450 (CYP) activity inhibition test, a metabolic dependence inhibition test, an in vivo mouse micronucleus test, an in vivo rat liver UDS test, and the like.

A short description of series [4]: Tissue distribution (general statement). As to conditions: qualitative statement, no comparator named.
Series [5] has as its system Staphylococcus aureus (S. aureus Smith). Put plainly: S. aureus infection experiment in mice. It is filed as in vivo. As to conditions: ICR mice, five per group; intraperitoneal infection; 3 mg/kg subcutaneously once, 1 hour after infection. The protocol:
ICR mice (male, SPF grade, 4-week old, five mice per group) were used. A bacterial inoculum was prepared by suspending Staphylococcus aureus (S. aureus
Smith), which was cultured on a Mueller-Hinton agar plate at 37° C. overnight, in sterile physiological saline, preparing a bacterial solution of about 4×10^8 CFU/mL, and diluting the solution 10-fold in 5.6% mucin-phosphate buffer. ICR mice were intraperitoneally administered with the bacterial inoculum (approximately 2×10^7 CFU/mouse) to induce infection. Test substances were dissolved in 10% hydroxypropyl-β-cyclodextrin and 0.05 mol/L hydrochloric acid. […] The number of surviving mice was recorded on 5 days after the infection.

In another series the test system is S. aureus F-3095. The series is described as follows: Susceptibility test 1: MIC by micro-dilution method. It is filed as cell-based. The settings on record: Staphylococcus aureus, F3095, read-out: MIC (μg/mL) S. aureus F-3095. How it is done:
(§1) Test substances were initially dissolved in dimethylsulfoxide. Antibacterial activities (MICs) of the same compounds were determined by the micro-dilution method as recommended by the Japanese Society of Chemotherapy.
(§2) The bacteria cultured on Mueller-Hinton agar (MHA) plates at 35° C. overnight were suspended in sterile physiological saline in a concentration that was equivalent to 0.5 McFarland. The bacterial inoculum was prepared by 10-fold dilution of this suspension. Approximately 0.005 mL of the bacterial inoculum was inoculated into Cation-adjusted Mueller-Hinton broth (CAMHB, 100 μL/well) containing the test substance and was incubated at 35° C. overnight. The lowest concentration of the test substance at which no bacterial growth was macroscopically observed was determined as the MIC.
Background: In broth dilution the organism is exposed to a series of concentrations in liquid medium.

The next series concerns S. aureus FDA209P. The description is as above. The class given is cell-based. The settings on record: Staphylococcus aureus, read-out: MIC (μg/mL) S. aureus FDA209P. How it is done:
as §1, §2

Series [6] can be described thus: Hygroscopicity of the salt (statement). As to conditions: trihydrochloride salt. The class given is physicochemical.

This is an account of results in patent publication US8367831B2, “Heterocyclic compound or salt thereof and intermediate thereof” (priority 2006, dated 2013).

Where a name gives a salt, the structure may show the parent alone.

Regarding `COc1cnc2ccc(=O)n(CCN3CCC(NCc4cc5c(cn4)OCCO5)CC3)c2c1` [Example 2, 1-(2-(4-((2,3-dihydro(1,4)dioxino(2,3-c)pyridin-7-ylmethyl)amino)piperidin-1-yl)ethyl)-7-methoxy-1,5-naphthyridin-2(1H)-one hydrochloride], in series [1], the antimicrobial activity entry was “higher”. Besides, the CC50 at 3 days in the series “Cytotoxicity test (XTT)” is no less than 51.2 µg/mL. Moreover, the metabolic stability result in [2] is on record as “higher”. Besides, in series [3], the safety entry was “higher”. Besides, the tissue distribution result in series [4] was “higher”. Also, the “number of surviving mice on 5 days after the infection” value in series [5] is on record as “all mice”. Further, the MIC in the series with S. aureus F-3095 and in the series with S. aureus FDA209P was 0.0313 µg/mL in each case.
In the case of `Cl.Cl.Cl.O=c1ccc2ncc(F)cc2n1CCN1CCC(NCc2cc3c(cn2)OCCO3)CC1` [1-(2-(4-((2,3-dihydro(1,4)dioxino(2,3-c)pyridin-7-ylmethyl)amino)piperidin-1-yl)ethyl)-7-fluoro-1,5-naphthyridin-2(1H)-one trihydrochloride], in series [6], the hygroscopicity result is “nonhygroscopic”.
